# Measured values taken from patent US20190144867A1, “METHOD FOR MITIGATING METASTASIS” (RESEARCH FOUNDATION OF THE CITY UNIVERSITY OF NEW YORK, priority 2015, published 2019).
# Test system: SN12L1 metastatic renal carcinoma cells
# Test: Modified Boyden chamber 3D migration/invasion with interstitial flow
# Format: cell-based, human
# Settings: for migration response to interstitial flow following GAG enzymatic cleavage: 4h and 24h exposure to interstitial flow, normalized by no-flow controls; for normalized migration response to interstitial flow with MAPK signaling inhibitors: flow normalized to no-flow controls, FIG. 5
# Method: A modified Boyden chamber was used to apply interstitial flow forces to cells in a three-dimensional culture, mimicking those experienced by tumor cells within the interstitium. See Integr Biol (Camb) 2013; 5(11): 1334-43 for details. Briefly, cells were suspended in type I collagen (4 mg/ml), exposed to fluid flow forces via a Darcy flow apparatus (4 h), permitted to migrate for 24 h (without flow) through Transwell chambers (with 8μm pore filters) towards 1 nM TGF-α. Invasion rates were quantified by counting cells present on the underside of the filters. For these tests, only a 4 hour exposure to flow at the lowest shear stress level was applied using a 1 cm H2O hydrostatic pressure differential to drive the flow. Shear stress transmitted to the cell surface through the glycocalyx layer was estimated to be approximately 0.84 dynes/cm^2 and the interstitial flow velocity was 0.83 μm/sec as measured previously, which is in the physiologic range of tumor interstitial flows (0.1-2.0 μm/sec). In addition, baseline migration rates (without flow) for all clonal lines were determined. Based on proliferation rates, HS expression, baseline and flow-mediated migration rates, the CtGFP and shORG-8 cell lines were selected as a paired match for continued experimentation.
Compound,migration response to interstitial flow following GAG enzymatic cleavage (FIG. 4),"migration response to interstitial flow following GAG enzymatic cleavage (FIG. 4, listed as Hyaluronidase)","migration response to interstitial flow following GAG enzymatic cleavage (FIG. 4, listed as heparinase)",normalized migration response to interstitial flow with MAPK signaling inhibitors
hyaluronidase,greatly suppressed,significantly inhibit,–,–
heparinase III,greatly suppressed,–,significantly inhibit,–
"C[S+]([O-])c1ccc(-c2nc(-c3ccncc3)c(-c3ccc(F)cc3)[nH]2)cc1 (stereo not shown) [SB 203580, reference compound]",–,–,–,inhibited flow-induced enhancement of migration
"N#CC(=C(/N)Sc1ccccc1N)/C(C#N)=C(\N)Sc1ccccc1N [U0126, reference compound]",–,–,–,inhibited flow-induced enhancement of migration
"O=C1c2ccccc2-c2n[nH]c3cccc1c23 [JNK Inhibitor II, reference compound]",–,–,–,inhibited flow-induced enhancement of migration
